From US20240299416A1, “TREATMENT OF NF-kB-MEDIATED DISEASE” (ReveraGen BioPharma, Inc., priority 2021, published 2024)

What was measured:
[1] = system: boys with DMD; experiment: VBP15-003/VBP15-LTE motor outcomes over 18 months vs CINRG DNHS; type: in vivo, human; conditions: vs corticosteroid-naïve participants, ANCOVA
Excerpt: Assessments of efficacy were motor outcomes (primary outcome: time to stand from supine [TTSTAND]; secondary outcomes: time to run/walk 10 meters [TTRW], time to climb four stairs [TTCLIMB], distance covered in 6-minute walk test [6MWT], and the North Star Ambulatory Assessment [NSAA]). 6MWT and NSAA were not assessed in most CINRG DNHS participants and were not compared to vamorolone-treated participants. According to standard operating procedures, clinical evaluators were trained to harmonize the CINRG vamorolone, CINRG DNHS, and CINRG prednisone studies. Reliability of these outcomes (percent coefficient of variation) has been reported for the VBP15-002/VBP15-003 studies. Assessments were done at baseline (VBP15-002 entry), 24 weeks (VBP15-003 last visit), and 18 months (VBP15-LTE midpoint assessment at 12 months).
Only participants completing VBP15-002 and VBP15-003 were eligible to enroll in VBP15-LTE. […]
Statistical analyses were done on paired longitudinal outcome data using an analysis of covariance (ANCOVA) approach with change from baseline (VBP15-002) to month 18 (midpoint of VBP15-LTE). […] For the vamorolone-treated participants, age was calculated as (date of informed consent minus birthdate)/365.25. For the DNHS participants, age was calculated as (date of baseline visit used minus birthdate)/365.25. […]

[2] = target: T1, mineralocorticoid receptor (Homo sapiens, UniProt P08235); conditions: cited from earlier work
T1 sequence (P08235 1-984): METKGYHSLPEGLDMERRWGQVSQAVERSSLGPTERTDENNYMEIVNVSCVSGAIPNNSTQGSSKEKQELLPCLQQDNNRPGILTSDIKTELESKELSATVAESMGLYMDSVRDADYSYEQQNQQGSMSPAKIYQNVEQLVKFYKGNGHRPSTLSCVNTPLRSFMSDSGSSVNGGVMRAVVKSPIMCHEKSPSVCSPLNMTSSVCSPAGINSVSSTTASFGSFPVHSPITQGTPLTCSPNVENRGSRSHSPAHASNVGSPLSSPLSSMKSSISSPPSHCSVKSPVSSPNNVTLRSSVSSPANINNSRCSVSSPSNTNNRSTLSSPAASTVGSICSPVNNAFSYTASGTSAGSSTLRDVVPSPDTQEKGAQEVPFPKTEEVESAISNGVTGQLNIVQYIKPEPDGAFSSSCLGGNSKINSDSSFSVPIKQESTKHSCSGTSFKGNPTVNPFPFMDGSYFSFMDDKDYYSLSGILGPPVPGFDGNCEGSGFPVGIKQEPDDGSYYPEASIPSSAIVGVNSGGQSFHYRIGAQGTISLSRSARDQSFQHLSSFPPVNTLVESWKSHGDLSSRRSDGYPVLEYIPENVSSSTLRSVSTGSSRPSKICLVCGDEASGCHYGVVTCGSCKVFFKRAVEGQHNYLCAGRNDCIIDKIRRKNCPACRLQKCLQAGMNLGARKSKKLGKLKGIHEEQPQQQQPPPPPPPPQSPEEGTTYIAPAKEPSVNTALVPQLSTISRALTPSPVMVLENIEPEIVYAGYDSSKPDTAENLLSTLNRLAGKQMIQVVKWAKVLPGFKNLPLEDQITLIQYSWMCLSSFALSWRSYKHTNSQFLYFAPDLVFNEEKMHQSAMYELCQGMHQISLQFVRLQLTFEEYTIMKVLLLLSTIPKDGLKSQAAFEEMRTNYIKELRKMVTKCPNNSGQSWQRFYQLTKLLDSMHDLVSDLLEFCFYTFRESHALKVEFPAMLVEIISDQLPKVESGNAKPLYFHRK

C[C@@H]1C[C@H]2[C@@H]3CCC4=CC(=O)C=C[C@]4(C)C3=CC[C@]2(C)[C@@]1(O)C(=O)CO [Vamorolone, 17α,21-dihydroxy-16α-methylpregna-1,4,9(11)-triene-3,20-dione]
TTCLIMB, LS mean difference [1]: -0.34 s
TTRW, LS mean difference [1]: -0.84 s
activity at the mineralocorticoid receptor [2]: potent antagonist
